Data reported in patent US11298402B2, “Lysosomal degradation of lipids and proteins and method of use thereof” (University of Ottawa, priority 2015, dated 2022).

Legend:
hepatic cells = test: Prolonged oleate treatment (OA-induced steatosis) of hepatic cells; format: cell-based; conditions: oleate 0.4 mM for up to 3 days
From the text: FIG. 36 illustrates that the LD content in cells cultured under lipid-rich conditions may be manipulated by expression of different forms of Arl8b. Images in the top row show position of lysosomes in cells cultured in a lipid-rich medium (i.e. supplemented with oleate) for up to 4 days. After 1-day treatment with oleate, lysosomes (stained with LysoTracker, green) were accumulated in the perinuclear regions of cells. However after 2-day oleate treatment, lysosomes were relocated towards the LDs at cell periphery. The relocation of lysosomes from the perinuclear region toward cell periphery indicates perturbed lysosomal motility under oleate-treatment conditions, which leads to prolonged association of lysosomes with LDs. Accumulation/higher interaction of lysosomes on LDs became more pronounced after 3- and 4-day treatment with oleate, with clear rings of lysosomes around LDs. Expression of the GDP-bound form of Arl8b, or Arl8b^T34N (or Arl8b “DN”, dominant negative), protects hepatocytes from accumulation of LDs upon long-term treatment with oleate. Note that even after 3 days, cells expressing Arl8b “DN” were healthy and accumulated low numbers of LDs (middle row). In contrast, expression of the GTP-bound form of Arl8b, or Arl8b^Q75L (or Arl8b “DA”, dominant active), exacerbated accumulation of LDs in cells (images in the bottom row). In fact, the cells could not tolerate long-term treatment and started to die after day 2. This situation may be similar to that in advanced levels of fatty liver, which causes hepatocyte apoptosis;
In these cells, lysosomes were continuously in contact with CLD, indicative of stalled lysosomal motility. This persistent lysosomal interaction with CLDs (i.e. “kiss” without “run”) clearly indicates the interfered process of microautophagy and lack of a mechanism in the cells, after prolonged OA treatment, that facilitates dissociation of lysosomes from CLDs, blocking the engulfment process. Thus, phenotypically, accumulation of CLD in cells cultured in lipid-rich media (e.g. supplementation with 0.4 mM OA) is invariably associated with a compromised lysosomal motility (i.e. kiss-and-run).

[1] = tested on: McA-RH7777 cells (A18-C3); test: Measurement of cytosolic pH (pHrodo); format: cell-based, rat; conditions: OA or EPA treatment
Procedure: In certain non-limiting examples described herein, McA-RH7777 cells stably expressing human apoB-100 and human apoC-III (designated A18-C3) were used for the studies. […] In addition, these studies, particularly those concerning EPA- or DHA-triggered lysosomal motility and CLD degradation, were also performed using primary rat hepatocytes. Transfection of plasmids encoding proteins of interest, or transfection of siRNA specific for silencing target gene expression, was achieved using the FuGENE HP Extreme reagent (Roche). […] Quantification of cell lipid contents was achieved either by direct mass measurement (HPTLC) and counting the number of lipid droplets using Image J Lipid Droplet Counter Plug-In, or indirectly by Western blot analysis of cellular content of ADRP. Secretion of apoB and TG-rich lipoprotein was determined by Western blot analysis and metabolic labeling. Mitochondrial β-oxidation was measured using MitoSOX Red (Life Technologies) in situ. Autophagic flux was determined by using Cyto-ID assay (Enzo Life Science) and by monitoring GFP-LC3 clustering in situ. Interaction of Arl8b and subunits of the HOPS complex was determined in situ by the proximity ligation assay (Olink Biosience). Cytoplasmic pH was measured using the cytosolic pHrodo indicator reagent (Invitrogen). […]

[2] = tested on: McA-RH7777 cells (A18-C3); test: Live imaging of lysosomal motility and lysosome-CLD interaction (kiss-and-run); format: cell-based, rat
Procedure: In certain non-limiting examples described herein, McA-RH7777 cells stably expressing human apoB-100 and human apoC-III (designated A18-C3) were used for the studies. […] In addition, these studies, particularly those concerning EPA- or DHA-triggered lysosomal motility and CLD degradation, were also performed using primary rat hepatocytes. Transfection of plasmids encoding proteins of interest, or transfection of siRNA specific for silencing target gene expression, was achieved using the FuGENE HP Extreme reagent (Roche). Representative gene silencing siRNA sequences, which are not meant to be limiting, are described in Table 1, and plasmids encoding proteins of interest are described in Table 2. The effectiveness of siRNA silencing was verified by Western-blotting of cellular content of the target proteins, and by intracellular localization assay using siRNA-Tracker (Mirus Bioscience). Twenty-four h after plasmid transfection, or 48 h after siRNA transfection, the cells were cultured in lipid-rich media containing fetal bovine serum (20%) and OA (0.4 mM). The lipid-laden cells were switched to fresh media supplemented with OA or EPA (0.4 mM). In live imaging experiments, LipidTOX Red (Life Technologies) and LysoTracker (Life Technologies) were added to media prior to EPA treatment, to visualize lipid droplets and lysosomes, respectively. For visualizing peroxisomes, Peroxisome-GFP (Invitrogen) was introduced to the cells 24 h prior to experiments. Quantification of cell lipid contents was achieved either by direct mass measurement (HPTLC) and counting the number of lipid droplets using Image J Lipid Droplet Counter Plug-In, or indirectly by Western blot analysis of cellular content of ADRP. Secretion of apoB and TG-rich lipoprotein was determined by Western blot analysis and metabolic labeling. Mitochondrial β-oxidation was measured using MitoSOX Red (Life Technologies) in situ. Autophagic flux was determined by using Cyto-ID assay (Enzo Life Science) and by monitoring GFP-LC3 clustering in situ. Interaction of Arl8b and subunits of the HOPS complex was determined in situ by the proximity ligation assay (Olink Biosience). Cytoplasmic pH was measured using the cytosolic pHrodo indicator reagent (Invitrogen). Live imaging of fluorescent-tagged proteins was performed 1 h post-EPA treatment. Cells were also collected at the time of EPA treatment for transmission EM and tomography, as well as immuno-EM. For movies, cells were imaged at 60 sec intervals every 5 min, for a total of 30 min.
Cells were grown on 35-mm glass bottom dishes (Ibidi GmbH München, Germany) for 16 h in DMEM supplemented with FBS (20%) and OA (0.4 mM). Cells were imaged using a Zeiss 510 META laser scanning confocal microscope with a heated CO2-controlled stage (5% CO2 at 37° C.). Images were captured at a frame-rate of 30 frame/sec using a 63×. N.A.1.4 objective. Recommended laser lines and filter combinations were used for each dye. For visualization of lipid droplets, lysosomes, mitochondria, and mitochondrial β-oxidation, the respective reagents LipidTOX Red (Invitrogen), LysoTracker (Life Technology), MitoTracker (Life Technology), MitoSox Red (Invitrogen), and Peroxisome-GFP BacMam2.0 (Invitrogen) were introduced into the cells, according to manufacturers' recommendations, prior to EPA treatment.
Cells were cultured with lipid-rich media containing OA (0.4 mM) for 16 h. The lipid-laden cells were switched to fresh media containing EPA (0.4 mM) for 1 h, and the lysosomal movement towards lipid droplets was recorded by time-lapse microscopy. Fluorescent intensity of lysosomal signals at the periphery of selected individual lipid droplet was measured using Image J Live Intensity Profiler Plug-in^31-33 over a period of 40 sec. Quantification for each condition was carried out for 60 individual lipid droplets from three independent experiments. Constant threshold was applied to all of the images in each experiment.

Structure (SMILES): CCCCCCCC/C=C\CCCCCCCC(=O)O [OA, oleic acid, reference compound]
- steatosis (CLD accumulation) (hepatic cells): developed severe steatosis
- cytoplasmic pH [1]: neutral
- lysosomal motility and direct lysosomal interaction with CLD ([2]; fatty acid added to lipid-laden cells, live imaging): reduced levels of interaction between lysosomes and lipid droplets
- activation of microautolipophagy ([2]; oleate treatment): transient and is of low magnitude
- duration of the brief activation of microautolipophagy ([2]; oleate treatment): 10 to 15 min
